Laboratory results: patent US20250197387A1, “BCL-XL DEGRADERS AND USES THEREOF” (Kymera Therapeutics, Inc., priority 2021, published 2025)

Columns and labels:
Type in all cases: cell-based
BCL-XL = biological target: T1, BCL-XL (Homo sapiens, UniProt Q07817); assay: Bcl-xL ELISA degradation in MOLT-4 cells, 6 h; details: for DC50: read-out: Bcl-xL ELISA in MOLT-4 degradation 6 h: Mean external-Abs DC50
T1 construct: endogenous in cells; host or cells: MOLT-4
Experimental: The letter codes for BCL-XL DC50 include: A (<0.01 μM); B (0.01-0.1 μM); C (>[…]); D (>0.5-1.0 μM); and E (>1.0 μM). The letter codes for Dmax % include A (>75%); B (50 to 75%); C (<50%).

MOLT-4 cells = assay: CTG (CellTiter-Glo) cell viability assay, MOLT-4; details: Homo sapiens, MOLT-4, 72 h, 3 day incubation, read-out: CTG Cell Viability Assay - MOLT-4 3 day: Average external-IC50
Outline: (§1)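 IC50 is from a three-parameter logistic fit of CellTiter-Glo luminescence after 3-day treatment of cells seeded at 10,000 per well. Codes: MOLT-4 A <0.1, B 0.1-1.0, C >1.0-3.0, D >3.0 μM; Caki-2 A <0.1, B 0.1-1.0, C >1.0-10.0, D >10.0 μM.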

Caki-2 cells = assay: CTG (CellTiter-Glo) cell viability assay, Caki-2; details: Homo sapiens, 72 h, 3 day incubation, read-out: CTG Chempartner - Caki-2 3 day: Average external-IC50
Outline: as §1

T1 sequence (Q07817 whole entry): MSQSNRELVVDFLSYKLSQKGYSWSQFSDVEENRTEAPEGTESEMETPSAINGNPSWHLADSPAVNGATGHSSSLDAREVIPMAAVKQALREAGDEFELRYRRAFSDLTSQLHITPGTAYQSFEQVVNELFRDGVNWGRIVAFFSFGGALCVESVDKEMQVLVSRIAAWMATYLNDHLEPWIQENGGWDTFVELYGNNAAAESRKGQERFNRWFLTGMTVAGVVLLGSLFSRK

| SMILES | Dmax (BCL-XL) [%] | DC50 (BCL-XL) [nM] | IC50 (MOLT-4 cells) [nM] | IC50 (Caki-2 cells) [nM] |
| --- | --- | --- | --- | --- |
| Cc1cc(N(C)c2ccc(-c3cnn(CC45CC6CC(CC(C6)C4)C5)c3C)c(C(=O)NS(=O)(=O)CCCCCC(=O)N[C@H](C(=O)N3C[C@H](O)C[C@H]3C(=O)N[C@@H](C)c3ccc(C#N)cc3)C(C)(C)C)n2)nnc1Nc1nc2ccccc2s1 [I-464] | > 75 | 10 to 100 | 100 to 1000 | > 10000 |
| Cc1ncsc1-c1ccc([C@H](C)NC(=O)[C@@H]2C[C@@H](O)CN2C(=O)[C@@H](NC(=O)CCCCCS(=O)(=O)NC(=O)c2nc(N3CCc4cccc(C(=O)Nc5nc6ccccc6s5)c4C3)ccc2-c2cnn(CC(C)(C)C)c2C)C(C)(C)C)cc1 [I-465] | > 75 | 10 to 100 | 100 to 1000 | > 10000 |
| Cc1ncsc1-c1ccc([C@H](C)NC(=O)[C@@H]2C[C@@H](O)CN2C(=O)[C@@H](NC(=O)CCCCCS(=O)(=O)NC(=O)c2nc(N3CCc4cccc(C(=O)Nc5nc6cccnc6s5)c4C3)ccc2-c2cnn(CC(C)(C)C)c2C)C(C)(C)C)cc1 [I-466] | > 75 | 100 to 500 | 1000 to 3000 | > 10000 |
| C#Cc1ccc([C@H](C)NC(=O)[C@@H]2C[C@@H](O)CN2C(=O)[C@@H](NC(=O)CCCCCS(=O)(=O)NC(=O)c2nc(N(C)c3cc(C)c(Nc4nc5ccccc5s4)nn3)ccc2-c2cnn(CC(C)(C)C)c2C)C(C)(C)C)cc1 [I-473] | > 75 | 500 to 1000 | 1000 to 3000 | > 10000 |
| C#Cc1ccc([C@H](C)NC(=O)[C@@H]2C[C@@H](O)CN2C(=O)[C@@H](NC(=O)CCCCCS(=O)(=O)NC(=O)c2nc(N(C)c3cc(C)c(Nc4nc5ccccc5s4)nn3)ccc2-c2cnn(CC34CC5CC(CC(C5)C3)C4)c2C)C(C)(C)C)c(O)c1 [I-475] | > 75 | < 10 | < 100 | > 10000 |
| C#Cc1ccc([C@H](C)NC(=O)[C@@H]2C[C@@H](O)CN2C(=O)[C@@H](NC(=O)CCCCCS(=O)(=O)NC(=O)c2nc(N(C)c3cc(C)c(Nc4nc5ccccc5s4)nn3)ccc2-c2cnn(CC34CC5CC(CC(C5)C3)C4)c2C)C(C)(C)C)c(OCCO)c1 [I-477] | > 75 | < 10 | < 100 | > 10000 |
| C#Cc1ccc([C@H](COC)NC(=O)[C@@H]2C[C@@H](O)CN2C(=O)[C@@H](NC(=O)CCCCCS(=O)(=O)NC(=O)c2nc(N3CCc4cccc(C(=O)Nc5nc6cccnc6s5)c4C3)ccc2-c2cnn(CC3CCCCC3)c2C)C(C)(C)C)cc1 [I-478] | > 75 | < 10 | < 100 | > 10000 |
| C#Cc1ccc([C@H](C)NC(=O)[C@@H]2C[C@@H](O)CN2C(=O)[C@@H](NC(=O)CCCCCS(=O)(=O)NC(=O)c2nc(N3CCc4cccc(C(=O)Nc5nc6cccnc6s5)c4C3)ccc2-c2cnn(CC3CCCCC3)c2C)C(C)(C)C)c(O)c1 [I-479] | > 75 | < 10 | < 100 | > 10000 |
| Cc1cc(N(C)c2ccc(-c3cnn(CC45CC6CC(CC(C6)C4)C5)c3C)c(C(=O)NS(=O)(=O)CCCCCC(=O)N[C@H](C(=O)N3C[C@H](O)C[C@H]3C(=O)NCc3ccc4c(c3)c(C)nn4C)C(C)(C)C)n2)nnc1Nc1nc2ccccc2s1 [I-484] | > 75 | < 10 | < 100 | > 10000 |

The next lines start with results.

| Dmax (BCL-XL) [%] | DC50 (BCL-XL) [nM] | IC50 (MOLT-4 cells) [nM] | SMILES | IC50 (Caki-2 cells) [nM] |
| --- | --- | --- | --- | --- |
| > 75 | 10 to 100 | < 100 | Cc1ncsc1-c1ccc([C@H](C)NC(=O)[C@@H]2C[C@@H](O)CN2C(=O)[C@@H](NC(=O)COCCOCCS(=O)(=O)NC(=O)c2nc(N3CCc4cccc(C(=O)Nc5nc6ccccc6s5)c4C3)ccc2-c2cnn(CC3CCCCC3)c2C)C(C)(C)C)cc1 [I-463] | 1000 to 10000 |
| > 75 | 100 to 500 | 1000 to 3000 | Cc1ncsc1-c1ccc(CNC(=O)[C@@H]2C[C@@H](O)CN2C(=O)[C@@H](NC(=O)CCCCCS(=O)(=O)NC(=O)c2nc(N3CCc4cccc(C(=O)Nc5nc6cccnc6s5)c4C3)ccc2-c2cnn(CC(C)(C)C)c2C)C(C)(C)C)cc1 [I-467] | > 10000 |
| > 75 | 10 to 100 | < 100 | C#Cc1ccc(CNC(=O)[C@@H]2C[C@@H](O)CN2C(=O)[C@@H](NC(=O)CCCCCS(=O)(=O)NC(=O)c2nc(N3CCc4cccc(C(=O)Nc5nc6ccccc6s5)c4C3)ccc2-c2cnn(CC(C)(C)C)c2C)C(C)(C)C)cc1 [I-471] | > 10000 |
| > 75 | < 10 | < 100 | C#Cc1ccc([C@H](CO)NC(=O)[C@@H]2C[C@@H](O)CN2C(=O)[C@@H](NC(=O)CCCCCS(=O)(=O)NC(=O)c2nc(N(C)c3cc(C)c(Nc4nc5ccccc5s4)nn3)ccc2-c2cnn(CC34CC5CC(CC(C5)C3)C4)c2C)C(C)(C)C)cc1 [I-474] | > 10000 |
| > 75 | < 10 | < 100 | C#Cc1ccc([C@H](COC)NC(=O)[C@@H]2C[C@@H](O)CN2C(=O)[C@@H](NC(=O)CCCCCS(=O)(=O)NC(=O)c2nc(N(C)c3cc(C)c(Nc4nc5ccccc5s4)nn3)ccc2-c2cnn(CC34CC5CC(CC(C5)C3)C4)c2C)C(C)(C)C)cc1 [I-476] | > 10000 |
| > 75 | < 10 | < 100 | C#Cc1ccc([C@H](C)NC(=O)[C@@H]2C[C@@H](O)CN2C(=O)[C@@H](NC(=O)CCCCCS(=O)(=O)NC(=O)c2nc(N3CCc4cccc(C(=O)Nc5nc6cccnc6s5)c4C3)ccc2-c2cnn(CC3CCCCC3)c2C)C(C)(C)C)c(OCCO)c1 [I-480] | > 10000 |
| > 75 | < 10 | < 100 | C#Cc1ccc(C2(NC(=O)[C@@H]3C[C@@H](O)CN3C(=O)[C@@H](NC(=O)CCCCCS(=O)(=O)NC(=O)c3nc(N(C)c4cc(C)c(Nc5nc6ccccc6s5)nn4)ccc3-c3cnn(CC45CC6CC(CC(C6)C4)C5)c3C)C(C)(C)C)CC2)cc1 [I-481] | > 10000 |
| > 75 | < 10 | < 100 | C#Cc1ccc(C2(NC(=O)[C@@H]3C[C@@H](O)CN3C(=O)[C@@H](NC(=O)CCCCCS(=O)(=O)NC(=O)c3nc(N4CCc5cccc(C(=O)Nc6nc7cccnc7s6)c5C4)ccc3-c3cnn(CC4CCCCC4)c3C)C(C)(C)C)CC2)cc1 [I-482] | > 10000 |
| > 75 | 10 to 100 | < 100 | COc1nn(C)c2ccc(CNC(=O)[C@@H]3C[C@@H](O)CN3C(=O)[C@@H](NC(=O)CCCCCS(=O)(=O)NC(=O)c3nc(N4CCc5cccc(C(=O)Nc6nc7cccnc7s6)c5C4)ccc3-c3cnn(CC4CCCCC4)c3C)C(C)(C)C)cc12 [I-483] | > 10000 |
| > 75 | 10 to 100 | < 100 | C#Cc1ccc([C@H](CO)NC(=O)[C@@H]2C[C@@H](O)CN2C(=O)[C@@H](NC(=O)CCCCCS(=O)(=O)NC(=O)c2nc(N3CCc4cccc(C(=O)Nc5nc6cccnc6s5)c4C3)ccc2-c2cnn(CC3CCCCC3)c2C)C(C)(C)C)cc1 [I-488] | > 10000 |
| > 75 | 10 to 100 | < 100 | COc1nn(C)c2ccc([C@H](C)NC(=O)[C@@H]3C[C@@H](O)CN3C(=O)[C@@H](NC(=O)CCCCCS(=O)(=O)NC(=O)c3nc(N4CCc5cccc(C(=O)Nc6nc7cccnc7s6)c5C4)ccc3-c3cnn(CC4CCCCC4)c3C)C(C)(C)C)cc12 [I-489] | > 10000 |
